What follows are molecules tested on HIV (assay: MT4 assay: antiviral HIV activity in MT-4 cells). Conditions: Human immunodeficiency virus 1, MT4, 96 h, read-out: HIV MT4 Assay IC50 (μM), HTLV-1 transformed cell line MT-4; read-out 96 hours later with cell titer glo; 10 point dose response.
Type: cell-based
Summary of the method: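 Compounds tested in HTLV-1-transformed MT-4 cells for protection from HIV, with cytotoxicity run in parallel under the same conditions; CellTiter-Glo luminescence read 96 h later. IC50 from 10-point, 3–4-fold serial dilutions spanning >1000-fold, % inhibition relative to no-compound control, fitted by four-parameter logistic.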

Compound	IC50 [µM]
Cc1nc2c(ccn2Cc2ccc(F)cc2Cl)c(-c2ccc3c(c2)CCCO3)c1[C@@H](OC(C)(C)C)C(=O)O [Example 47, (R)-2-(tert-butoxy)-2-(1-(2-chloro-4-fluorobenzyl)-4-(chroman-6-yl)-6-methyl-1H-pyrrolo[2,3-b]pyridin-5-yl)acetic acid]	50
Cc1nc2c(ccn2Cc2ccc(F)cc2Cl)c(-c2ccc3c(c2)CCCO3)c1[C@H](OC(C)(C)C)C(=O)O [Example 48, (S)-2-(tert-butoxy)-2-(1-(2-chloro-4-fluorobenzyl)-4-(chroman-6-yl)-6-methyl-1H-pyrrolo[2,3-b]pyridin-5-yl)acetic acid]	0.03
Cc1ccc(-c2c(C(OC(C)(C)C)C(=O)O)c(C)nc3c2ccn3Cc2c(Cl)ccc(F)c2F)cc1 (stereo not shown) [Example 49, 2-(tert-butoxy)-2-(1-(6-chloro-2,3-difluorobenzyl)-6-methyl-4-(p-tolyl)-1H-pyrrolo[2,3-b]pyridin-5-yl)acetic acid]	0.123
Cc1nc2c(ccn2Cc2c(Cl)cccc2Cl)c(-c2ccc3c(c2)CCCO3)c1C(OC(C)(C)C)C(=O)O (stereo not shown) [Example 50, 2-(tert-butoxy)-2-(4-(chroman-6-yl)-1-(2,6-dichlorobenzyl)-6-methyl-1H-pyrrolo[2,3-b]pyridin-5-yl)acetic acid]	0.035
Cc1nc2c(ccn2Cc2c(F)cccc2F)c(-c2ccc3c(c2)CCCO3)c1C(OC(C)(C)C)C(=O)O (stereo not shown) [Example 51, 2-(tert-butoxy)-2-(4-(chroman-6-yl)-1-(2,6-difluorobenzyl)-6-methyl-1H-pyrrolo[2,3-b]pyridin-5-yl)acetic acid]	0.09
COc1ccc(Cn2ccc3c(-c4ccc5c(c4)CCCO5)c(C(OC(C)(C)C)C(=O)O)c(C)nc32)cc1C(F)(F)F (stereo not shown) [Example 52, 2-(tert-butoxy)-2-(4-(chroman-6-yl)-1-(4-methoxy-3-(trifluoromethyl)benzyl)-6-methyl-1H-pyrrolo[2,3-b]pyridin-5-yl)acetic acid]	0.37
Cc1ccc(F)c(Cn2ccc3c(-c4ccc5c(c4)CCCO5)c(C(OC(C)(C)C)C(=O)O)c(C)nc32)c1Cl (stereo not shown) [Example 53, 2-(tert-butoxy)-2-(1-(2-chloro-6-fluoro-3-methylbenzyl)-4-(chroman-6-yl)-6-methyl-1H-pyrrolo[2,3-b]pyridin-5-yl)acetic acid]	0.055
Cc1ccc(F)cc1Cn1ccc2c(-c3ccc4c(c3)CCCO4)c(C(OC(C)(C)C)C(=O)O)c(C)nc21 (stereo not shown) [Example 54, 2-(tert-butoxy)-2-(4-(chroman-6-yl)-1-(5-fluoro-2-methylbenzyl)-6-methyl-1H-pyrrolo[2,3-b]pyridin-5-yl)acetic acid]	0.045
COc1cccc(F)c1Cn1ccc2c(-c3ccc4c(c3)CCCO4)c(C(OC(C)(C)C)C(=O)O)c(C)nc21 (stereo not shown) [Example 55, 2-(tert-butoxy)-2-(4-(chroman-6-yl)-1-(2-fluoro-6-methoxybenzyl)-6-methyl-1H-pyrrolo[2,3-b]pyridin-5-yl)acetic acid]	0.021
Cc1nc2c(ccn2Cc2c(F)cccc2Cl)c(-c2ccc3c(c2)CCCO3)c1C(OC(C)(C)C)C(=O)O (stereo not shown) [Example 56, 2-(tert-butoxy)-2-(1-(2-chloro-6-fluorobenzyl)-4-(chroman-6-yl)-6-methyl-1H-pyrrolo[2,3-b]pyridin-5-yl)acetic acid]	0.025
Cc1nc2c(ccn2Cc2cccc(F)c2F)c(-c2ccc3c(c2)CCCO3)c1[C@H](OC(C)(C)C)C(=O)O [Example 57, (S)-2-(tert-butoxy)-2-(4-(chroman-6-yl)-1-(2,3-difluorobenzyl)-6-methyl-1H-pyrrolo[2,3-b]pyridin-5-yl)acetic acid]	0.027
Cc1nc2c(ccn2Cc2cc(F)ccc2F)c(-c2ccc3c(c2)CCCO3)c1[C@H](OC(C)(C)C)C(=O)O [Example 58, (S)-2-(tert-butoxy)-2-(4-(chroman-6-yl)-1-(2,5-difluorobenzyl)-6-methyl-1H-pyrrolo[2,3-b]pyridin-5-yl)acetic acid]	0.08
Cc1nc2c(ccn2Cc2ccc(C(F)(F)F)cc2F)c(-c2ccc3c(c2)CCCO3)c1C(OC(C)(C)C)C(=O)O (stereo not shown) [Example 59, 2-(tert-butoxy)-2-(4-(chroman-6-yl)-1-(2-fluoro-4-(trifluoromethyl)benzyl)-6-methyl-1H-pyrrolo[2,3-b]pyridin-5-yl)acetic acid]	0.38
Cc1nc2c(ccn2Cc2cccc(OC(F)(F)F)c2)c(-c2ccc3c(c2)CCCO3)c1C(OC(C)(C)C)C(=O)O (stereo not shown) [Example 60, 2-(tert-butoxy)-2-(4-(chroman-6-yl)-6-methyl-1-(3-(trifluoromethoxy)benzyl)-1H-pyrrolo[2,3-b]pyridin-5-yl)acetic acid]	0.181
COc1cccc(Cn2ccc3c(-c4ccc5c(c4)CCCO5)c(C(OC(C)(C)C)C(=O)O)c(C)nc32)c1 (stereo not shown) [Example 61, 2-(tert-butoxy)-2-(4-(chroman-6-yl)-1-(3-methoxybenzyl)-6-methyl-1H-pyrrolo[2,3-b]pyridin-5-yl)acetic acid]	0.41
Cc1nc2c(ccn2Cc2ccc(-n3cncn3)cc2)c(-c2ccc3c(c2)CCCO3)c1C(OC(C)(C)C)C(=O)O (stereo not shown) [Example 62, 2-(1-(4-(1H-1,2,4-triazol-1-yl)benzyl)-4-(chroman-6-yl)-6-methyl-1H-pyrrolo[2,3-b]pyridin-5-yl)-2-(tert-butoxy)acetic acid]	0.98
Cc1ccc(-c2c(C(OC(C)(C)C)C(=O)O)c(C)nc3c2ccn3Cc2ccc(C(F)(F)F)cc2)cc1 (stereo not shown) [Example 63, 2-(tert-butoxy)-2-(6-methyl-4-(p-tolyl)-1-(4-(trifluoromethyl)benzyl)-1H-pyrrolo[2,3-b]pyridin-5-yl)acetic acid]	3.96
Cc1nc2c(ccn2Cc2ccc(OC(F)(F)F)cc2)c(-c2ccc3c(c2)CCCO3)c1C(OC(C)(C)C)C(=O)O (stereo not shown) [Example 64, 2-(tert-butoxy)-2-(4-(chroman-6-yl)-6-methyl-1-(4-(trifluoromethoxy)benzyl)-1H-pyrrolo[2,3-b]pyridin-5-yl)acetic acid]	0.68
Cc1nc2c(ccn2CC2CCCCC2)c(-c2ccc3c(c2)CCCO3)c1C(OC(C)(C)C)C(=O)O (stereo not shown) [Example 65, 2-(tert-butoxy)-2-(4-(chroman-6-yl)-1-(cyclohexylmethyl)-6-methyl-1H-pyrrolo[2,3-b]pyridin-5-yl)acetic acid]	0.59
Cc1nc2c(ccn2CC2CCN(C(=O)OC(C)(C)C)CC2)c(-c2ccc3c(c2)CCCO3)c1C(OC(C)(C)C)C(=O)O (stereo not shown) [Example 66, 2-(tert-butoxy)-2-(1-((1-(tert-butoxycarbonyl)piperidin-4-yl)methyl)-4-(chroman-6-yl)-6-methyl-1H-pyrrolo[2,3-b]pyridin-5-yl)acetic acid]	7.34
Cc1nc2c(ccn2CC2CCOCC2)c(-c2ccc3c(c2)CCCO3)c1C(OC(C)(C)C)C(=O)O (stereo not shown) [Example 67, 2-(tert-butoxy)-2-(4-(chroman-6-yl)-6-methyl-1-((tetrahydro-2H-pyran-4-yl)methyl)-1H-pyrrolo[2,3-b]pyridin-5-yl)acetic acid]	0.59
Cc1nc2c(ccn2CC2CCC2)c(-c2ccc3c(c2)CCCO3)c1C(OC(C)(C)C)C(=O)O (stereo not shown) [Example 68, 2-(tert-butoxy)-2-(4-(chroman-6-yl)-1-(cyclobutylmethyl)-6-methyl-1H-pyrrolo[2,3-b]pyridin-5-yl)acetic acid]	0.72
Cc1ccc(-c2c(C(OC(C)(C)C)C(=O)O)c(C)nc3c2ccn3Cc2ccc(F)c(C(F)(F)F)c2)cc1 (stereo not shown) [Example 69, 2-(tert-butoxy)-2-(1-(4-fluoro-3-(trifluoromethyl)benzyl)-6-methyl-4-(p-tolyl)-1H-pyrrolo[2,3-b]pyridin-5-yl)acetic acid]	0.25
Cc1ccc(-c2c(C(OC(C)(C)C)C(=O)O)c(C)nc3c2ccn3Cc2ccc(F)cc2C)cc1 (stereo not shown) [Example 70, 2-(tert-butoxy)-2-(1-(4-fluoro-2-methylbenzyl)-6-methyl-4-(p-tolyl)-1H-pyrrolo[2,3-b]pyridin-5-yl)acetic acid]	0.04
Cc1ccc(-c2c(C(OC(C)(C)C)C(=O)O)c(C)nc3c2ccn3C2CCCCC2)cc1 (stereo not shown) [Example 73, 2-(tert-Butoxy)-2-[1-cyclohexyl-6-methyl-4-(4-methylphenyl)-1H-pyrrolo[2,3-b]pyridin-5-yl]acetic acid]	1.31
Cc1ccc(-c2c(C(OC(C)(C)C)C(=O)O)c(C)nc3c2ccn3C2CCC(C)CC2)cc1 [Example 74, 2-(tert-butoxy)-2-(6-methyl-1-((1R,4R)-4-methylcyclohexyl)-4-(p-tolyl)-1H-pyrrolo[2,3-b]pyridin-5-yl)acetic acid]	2.33
COCCn1ccc2c(-c3ccc(C)cc3)c(C(OC(C)(C)C)C(=O)O)c(C)nc21 (stereo not shown) [Example 75, 2-(tert-Butoxy)-2-(1-(2-methoxyethyl)-6-methyl-4-(p-tolyl)-1H-pyrrolo[2,3-b]pyridin-5-yl)acetic acid]	4.1
Cc1ccc(-c2c(C(OC(C)(C)C)C(=O)O)c(C)nc3c2ccn3CC(C)(C)C)cc1 (stereo not shown) [Example 76, 2-(tert-butoxy)-2-(6-methyl-1-neopentyl-4-(p-tolyl)-1H-pyrrolo[2,3-b]pyridin-5-yl)acetic acid]	0.9
Cc1ccc(-c2c(C(OC(C)(C)C)C(=O)O)c(C)nc3c2ccn3Cc2ccc(Cl)cc2)cc1 (stereo not shown) [Example 77, 2-(tert-Butoxy)-2-(1-(4-chlorobenzyl)-6-methyl-4-(p-tolyl)-1H-pyrrolo[2,3-b]pyridin-5-yl)acetic acid]	0.65

Same assay, conditions: read-out: HIV MT4 Assay IC50; HTLV-1 transformed cell line MT-4; read-out 96 hours later with cell titer glo; 10 point dose response

Compound	IC50 [µM]
Cc1nc2c(ccn2C(C)c2ccc(F)c(F)c2)c(-c2ccc3c(c2)CCCO3)c1C(OC(C)(C)C)C(=O)O (stereo not shown) [Example 71, 2-(tert-butoxy)-2-(4-(chroman-6-yl)-1-(1-(3,4-difluorophenyl)ethyl)-6-methyl-1H-pyrrolo[2,3-b]pyridin-5-yl)acetic acid]	0.016
Cc1nc2c(ccn2C(C)c2ccc(F)c(F)c2)c(-c2ccc3c(c2)CCCO3)c1C(OC(C)(C)C)C(=O)O (stereo not shown) [Example 72, 2-(tert-butoxy)-2-(4-(chroman-6-yl)-1-(1-(3,4-difluorophenyl)ethyl)-6-methyl-1H-pyrrolo[2,3-b]pyridin-5-yl)acetic acid]	0.19

— US8609653B2, “Azaindole compounds and methods for treating HIV” (priority 2011, dated 2013)
